Drawing on patent US20230139171A1 (SITA Information Networking Computing UK Limited, priority 2019, published 2023), this text covers IC50 for eleven molecules.

Bounds are passed on as bounds.

Common to all, as to type: cell-based
The target in one assay is T1, human TLR7 (Homo sapiens, UniProt Q9NYK1).
T1 construct: host or cells: HEK-Blue cells
T1 sequence (Q9NYK1 27-1049): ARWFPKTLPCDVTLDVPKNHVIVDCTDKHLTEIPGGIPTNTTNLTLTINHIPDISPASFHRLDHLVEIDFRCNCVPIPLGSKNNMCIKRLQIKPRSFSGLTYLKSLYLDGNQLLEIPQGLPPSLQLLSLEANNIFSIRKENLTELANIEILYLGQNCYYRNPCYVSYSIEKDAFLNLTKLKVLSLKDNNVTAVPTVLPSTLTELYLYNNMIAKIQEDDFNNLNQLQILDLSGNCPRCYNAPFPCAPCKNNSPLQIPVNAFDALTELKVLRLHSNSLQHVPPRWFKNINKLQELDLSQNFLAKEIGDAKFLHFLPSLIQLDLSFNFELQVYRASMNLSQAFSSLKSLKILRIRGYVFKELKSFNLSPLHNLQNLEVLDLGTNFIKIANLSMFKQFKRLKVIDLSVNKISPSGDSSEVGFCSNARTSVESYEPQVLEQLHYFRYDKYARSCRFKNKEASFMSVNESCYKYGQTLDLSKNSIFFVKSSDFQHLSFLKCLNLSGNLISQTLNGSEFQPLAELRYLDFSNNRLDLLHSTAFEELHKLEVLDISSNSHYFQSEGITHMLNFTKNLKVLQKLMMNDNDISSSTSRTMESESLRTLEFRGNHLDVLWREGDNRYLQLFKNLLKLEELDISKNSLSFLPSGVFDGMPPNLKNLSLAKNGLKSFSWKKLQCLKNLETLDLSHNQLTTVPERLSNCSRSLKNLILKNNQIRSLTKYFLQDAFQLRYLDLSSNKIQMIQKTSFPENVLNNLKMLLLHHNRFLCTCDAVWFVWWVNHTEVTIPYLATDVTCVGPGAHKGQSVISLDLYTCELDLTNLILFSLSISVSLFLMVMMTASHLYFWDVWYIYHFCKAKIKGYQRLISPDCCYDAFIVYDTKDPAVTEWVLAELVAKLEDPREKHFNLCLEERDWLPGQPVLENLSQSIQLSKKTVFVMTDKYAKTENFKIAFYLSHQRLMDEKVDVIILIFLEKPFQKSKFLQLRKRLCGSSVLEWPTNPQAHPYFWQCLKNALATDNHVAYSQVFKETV
In words: TLR7 inhibition reporter assay (HEK-Blue cells, SEAP reporter, gardiquimod stimulation). The conditions noted are these: HEK-Blue cells overexpressing human TLR7, SEAP reporter, gardiquimod 7.5 μM; read-out: TLR7 IC50. An outline of the steps:
(§1)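 Screening used HEK-Blue cells overexpressing one human TLR (7, 8 or 9) and an IFN-β minimal promoter–NF-κB/AP-1 SEAP construct. Stimulation lasted 22 h at 37 °C with receptor-specific agonist: gardiquimod, R848 or ODN2006 at 7.5 μM, 15.9 μM and 5 nM.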
A general note: Reporter assays use an easily measured gene product as a stand-in for the process of interest.

In a further assay the target is T2, human TLR8 (Homo sapiens, UniProt Q9NR97).
T2 construct: host or cells: HEK-Blue cells
T2 sequence (Q9NR97 27-1041): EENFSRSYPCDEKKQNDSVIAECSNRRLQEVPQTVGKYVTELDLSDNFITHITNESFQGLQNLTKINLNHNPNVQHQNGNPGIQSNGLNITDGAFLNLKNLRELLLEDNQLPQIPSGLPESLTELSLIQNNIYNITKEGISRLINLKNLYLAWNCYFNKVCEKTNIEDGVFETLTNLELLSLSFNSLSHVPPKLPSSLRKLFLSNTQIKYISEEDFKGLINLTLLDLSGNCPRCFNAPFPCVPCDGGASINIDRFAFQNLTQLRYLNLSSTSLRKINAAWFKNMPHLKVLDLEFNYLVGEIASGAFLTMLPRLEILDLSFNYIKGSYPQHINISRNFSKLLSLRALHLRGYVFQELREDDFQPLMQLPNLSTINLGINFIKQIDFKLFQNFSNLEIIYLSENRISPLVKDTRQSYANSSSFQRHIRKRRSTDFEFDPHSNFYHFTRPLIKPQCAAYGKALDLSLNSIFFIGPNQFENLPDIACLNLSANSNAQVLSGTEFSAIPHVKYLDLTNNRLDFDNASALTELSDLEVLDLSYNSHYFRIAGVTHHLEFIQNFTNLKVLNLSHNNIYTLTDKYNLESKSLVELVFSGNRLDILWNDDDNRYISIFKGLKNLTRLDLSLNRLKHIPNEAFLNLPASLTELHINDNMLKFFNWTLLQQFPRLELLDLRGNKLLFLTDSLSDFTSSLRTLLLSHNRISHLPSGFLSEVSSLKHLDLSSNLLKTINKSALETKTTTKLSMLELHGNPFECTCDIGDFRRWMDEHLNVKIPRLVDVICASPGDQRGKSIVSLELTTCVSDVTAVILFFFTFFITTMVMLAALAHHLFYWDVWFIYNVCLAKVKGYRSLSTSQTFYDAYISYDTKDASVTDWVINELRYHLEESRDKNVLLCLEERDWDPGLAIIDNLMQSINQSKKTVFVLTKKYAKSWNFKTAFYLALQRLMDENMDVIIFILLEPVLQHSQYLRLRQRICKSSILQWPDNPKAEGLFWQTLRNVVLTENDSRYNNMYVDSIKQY
The assay is described as follows: TLR8 inhibition reporter assay (HEK-Blue cells, SEAP reporter, R848 stimulation). The conditions noted are these: HEK-Blue cells overexpressing human TLR8, SEAP reporter, R848 15.9 μM; read-out: TLR8 IC50. Summed up:
as §1

In a further assay the target is T3, human TLR9 (Homo sapiens, UniProt Q9NR96).
T3 construct: host or cells: HEK-Blue cells
T3 sequence (Q9NR96 26-1032): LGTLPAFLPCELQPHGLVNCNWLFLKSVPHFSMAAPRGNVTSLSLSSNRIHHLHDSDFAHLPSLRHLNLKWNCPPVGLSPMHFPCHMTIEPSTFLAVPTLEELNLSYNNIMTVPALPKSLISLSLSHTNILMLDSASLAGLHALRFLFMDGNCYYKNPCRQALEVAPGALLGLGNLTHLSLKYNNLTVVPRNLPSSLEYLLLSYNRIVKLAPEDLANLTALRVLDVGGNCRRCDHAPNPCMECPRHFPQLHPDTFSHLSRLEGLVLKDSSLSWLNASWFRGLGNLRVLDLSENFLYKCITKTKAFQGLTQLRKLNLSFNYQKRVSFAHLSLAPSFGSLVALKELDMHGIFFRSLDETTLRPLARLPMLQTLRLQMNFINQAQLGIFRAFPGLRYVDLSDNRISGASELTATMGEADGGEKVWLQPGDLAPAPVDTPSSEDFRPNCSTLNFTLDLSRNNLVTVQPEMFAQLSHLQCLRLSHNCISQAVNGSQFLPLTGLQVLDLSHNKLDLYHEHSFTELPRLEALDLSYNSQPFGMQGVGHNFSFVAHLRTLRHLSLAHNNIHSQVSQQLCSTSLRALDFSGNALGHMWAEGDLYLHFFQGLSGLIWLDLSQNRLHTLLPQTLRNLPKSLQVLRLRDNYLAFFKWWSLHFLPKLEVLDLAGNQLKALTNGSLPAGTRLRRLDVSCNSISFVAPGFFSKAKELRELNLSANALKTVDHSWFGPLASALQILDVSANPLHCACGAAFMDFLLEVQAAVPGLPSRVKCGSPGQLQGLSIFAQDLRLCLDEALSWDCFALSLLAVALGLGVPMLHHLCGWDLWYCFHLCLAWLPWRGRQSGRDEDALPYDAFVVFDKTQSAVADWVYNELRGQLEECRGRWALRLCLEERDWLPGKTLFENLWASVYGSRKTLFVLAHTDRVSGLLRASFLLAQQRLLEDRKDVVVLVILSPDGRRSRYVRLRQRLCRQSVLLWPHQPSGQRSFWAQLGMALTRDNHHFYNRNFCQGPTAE
The assay is described as follows: TLR9 inhibition reporter assay (HEK-Blue cells, SEAP reporter, ODN2006 stimulation). The conditions noted are these: HEK-Blue cells overexpressing human TLR9, SEAP reporter, ODN2006 5 nM. An outline of the steps:
as §1

One may read the IC50 as the concentration needed to halve the response being measured.

For `Cc1cc2ncnn2cc1-c1[nH]c2sc(C3CCC(NCC(C)(C)O)CC3)nc2c1C(C)C` (single isomer, unassigned) [Example 156, 1-((4-(6-isopropyl-5-(7-methyl-[1,2,4]triazolo[1,5-a]pyridin-6-yl)-4H-pyrrolo[3,2-d]thiazol-2-yl)cyclohexyl)amino)-2-methylpropan-2-ol], the IC50 on human TLR7 worked out at 1.72 nM; on human TLR8 it was 0.09 nM; against human TLR9 it was 10900 nM.

Consider `Cc1c(-c2[nH]c3sc(N4CCN(CC(C)(C)O)CC4)nc3c2C(C)C)cn2ncnc2c1C` [Example 281, 1-(4-(5-(7,8-dimethyl-[1,2,4]triazolo[1,5-a]pyridin-6-yl)-6-isopropyl-4H-pyrrolo[3,2-d]thiazol-2-yl)piperazin-1-yl)-2-methylpropan-2-ol], for which the IC50 on human TLR7 came to 9.49 nM; at human TLR8, 0.45 nM; at human TLR9, 42600 nM.

Regarding `Cc1c(-c2[nH]c3sc(C4CCC(N5CC6(C5)CS(=O)(=O)C6)CC4)nc3c2C(C)C)cn2ncnc2c1C` (single isomer, unassigned) [Example 233, 6-(4-(5-(7,8-dimethyl-[1,2,4]triazolo[1,5-a]pyridin-6-yl)-6-isopropyl-4H-pyrrolo[3,2-d]thiazol-2-yl)cyclohexyl)-2-thia-6-azaspiro[3.3]heptane 2,2-dioxide], the IC50 was 2.3 nM at human TLR7, 0.59 nM on human TLR8 and more than 50000 nM against human TLR9.

For `Cc1c(-c2[nH]c3sc(C4CCC(N5CCC5)CC4)nc3c2C(C)C)cn2ncnc2c1C` (single isomer, unassigned) [Example 216, 2-(4-(azetidin-1-yl)cyclohexyl)-5-(7,8-dimethyl-[1,2,4]triazolo[1,5-a]pyridin-6-yl)-6-isopropyl-4H-pyrrolo[3,2-d]thiazole], the IC50 was 0.72 nM on human TLR7, 1.02 nM on human TLR8 and 6520 nM against human TLR9.

Take `COc1cc(-c2[nH]c3sc(C4CCC(NCC(C)(C)OC)CC4)nc3c2C(C)C)cn2ncnc12` (single isomer, unassigned) [Example 86, 4-(6-isopropyl-5-(8-methoxy-[1,2,4]triazolo[1,5-a]pyridin-6-yl)-4H-pyrrolo[3,2-d]thiazol-2-yl)-N-(2-methoxy-2-methylpropyl)cyclohexan-1-amine]: the figures for the IC50 at human TLR7, at human TLR8 and at human TLR9 were 1.34 nM, 0.7 nM and 6420 nM, respectively.

Consider `CC(C)c1c(-c2cn(C)c3ncccc23)[nH]c2sc(C3CCNCC3)nc12` [Example 3, 6-isopropyl-5-(1-methyl-1H-pyrrolo[2,3-b]pyridin-3-yl)-2-(piperidin-4-yl)-4H-pyrrolo[3,2-d]thiazole], for which the IC50 on human TLR7 was 1.84 nM; on human TLR8 it was 3.05 nM; against human TLR9, 18500 nM.

For the molecule `Cc1cc(-c2[nH]c3sc(C4CCC(NC5COC5)CC4)nc3c2C(C)C)cn2ncnc12` (single isomer, unassigned) [Example 131, N-(4-(6-isopropyl-5-(8-methyl-[1,2,4]triazolo[1,5-a]pyridin-6-yl)-4H-pyrrolo[3,2-d]thiazol-2-yl)cyclohexyl)oxetan-3-amine], the figures for the half-inhibitory concentration (IC50) at human TLR7, on human TLR8 and at human TLR9 were 7.48 nM, 32.6 nM and 10900 nM, respectively.

For `COc1cc(-c2[nH]c3sc(C4CCC(NC[C@@H](F)C(C)(C)O)CC4)nc3c2C(C)C)cn2ncnc12` (single isomer, unassigned) [Example 90], the 50% inhibitory concentration (IC50) on human TLR7 came to 0.8 nM; on human TLR8 it was 1.13 nM; at human TLR9, 11100 nM.

Take `Cc1cc2ncnn2cc1-c1[nH]c2sc(C3CCC(N4CCCOCC4)CC3)nc2c1C(C)C` (single isomer, unassigned) [Example 147, 4-(4-(6-isopropyl-5-(7-methyl-[1,2,4]triazolo[1,5-a]pyridin-6-yl)-4H-pyrrolo[3,2-d]thiazol-2-yl)cyclohexyl)-1,4-oxazepane]: the 50% inhibitory concentration (IC50) turned out to be 90.1 nM on human TLR7, 5.67 nM at human TLR8 and 18800 nM at human TLR9.

As to `COc1cc(-c2[nH]c3sc(C4CCN(CC(C)(C)O)CC4)nc3c2C(C)C)cn2ncnc12` [Example 15, 1-(4-(6-isopropyl-5-(8-methoxy-[1,2,4]triazolo[1,5-a]pyridin-6-yl)-4H-pyrrolo[3,2-d]thiazol-2-yl)piperidin-1-yl)-2-methylpropan-2-ol], the IC50 on human TLR7 was 4.15 nM; at human TLR8 it was 3.14 nM; at human TLR9, 7810 nM.

As for `Cc1c(-c2[nH]c3sc(N4CCC(N(C)C(C)C)CC4)nc3c2C(C)C)cn2ncnc2c1C` [Example 292, 1-(5-(7,8-dimethyl-[1,2,4]triazolo[1,5-a]pyridin-6-yl)-6-isopropyl-4H-pyrrolo[3,2-d]thiazol-2-yl)-N-isopropyl-N-methylpiperidin-4-amine], the figures for the concentration for half-maximal inhibition (IC50) on human TLR7, on human TLR8 and against human TLR9 were 3.18 nM, 0.46 nM and 7520 nM, respectively.
